Entries after “also recorded” stand apart in the source; their conditions may differ. Like-named read-outs stand apart in the source and are kept apart here.
Experiments:
[1] = system: fresh-cut fennel; conditions: L-cysteine 0.5% or 41.3 mM; 6 d at 5° C.; cited from earlier work
[2] = system: fresh-cut artichoke; conditions: L-cysteine 0.5% or 41.3 mM; cited from earlier work
[3] = system: PPO; conditions: role: inhibitor; L-cysteine 1 to 5 mM; cited from earlier work
[4] = system: romaine lettuce midribs; assay: Pink rib discoloration of romaine midribs / whole leaflets dipped 1 min, stored at 10° C.; format: in vivo
Procedure: Pink rib discoloration in excised midrib segments of romaine lettuce was shown above. […] 4.3 mM of melatonin solution was prepared in water containing 0.5% DMSO (dimethyl sulfoxide), and control samples were treated with water containing 0.5% DMSO.
1 mM of melatonin solution was prepared in water containing 0.5% DMSO (dimethyl sulfoxide) and control samples were treated with water containing 0.5% DMSO.

[5] = system: cassava roots; conditions: melatonin 0.1 mM, cited from earlier work
[6] = system: litchi fruit; conditions: melatonin 0.4 mM, cited from earlier work
[7] = system: cassava roots; conditions: cited from earlier work
[8] = system: peach fruit; conditions: cited from earlier work
[9] = system: litchi fruit; conditions: cited from earlier work
[10] = system: PPO; conditions: melatonin 0.4 mM; litchi pericarp; up to 6 d; cited from earlier work
[11] = system: PAL; conditions: melatonin 0.1 mM; after 2 d at 4° C.; cited from earlier work
[12] = system: PAL; conditions: melatonin; 25 d storage at 4° C.; cited from earlier work
[13] = system: nonenzymatic antioxidants, such as phenolics, flavonoids, and anthocyanins; conditions: melatonin; cited from earlier work
[14] = melatonin, cassava root, vs untreated

## N[C@@H](CS)C(=O)O [L-cysteine]
[1]
  effect on browning of fennel: no effect; also recorded: ineffective
[2]
  effect on browning of artichoke: no effect; also recorded: developed browning or became yellow
[3]
  PPO activity: linear decline in PPO activity

## COc1ccc2[nH]cc(CCNC(C)=O)c2c1 [melatonin]
[4]; melatonin 1 mM in 0.5% DMSO, 4 days
  pink rib discoloration vs control: less pink rib discoloration than control samples
[4]; melatonin 4.3 mM in 0.5% DMSO, five days, whole leaflet
  pink rib discoloration vs control: less pink rib discoloration than control samples
[5]; 28° C., untreated control 6 h
  time to which vascular streaking disorder was delayed: 12 h
[5]; vs untreated control
  delay of vascular streaking / discoloration: delayed development of discoloration; also recorded: delayed twice as long as untreated control slices
[6]; 25° C.
  delay of pericarp browning: 4 days
[6]; up to 6 d
  discoloration of litchi pericarp: significant decrease
[7]; cassava
  key enzymes in the melatonin biosynthesis pathway: Upregulation
[7]; [14]
  antioxidant capacity: increased
  reactive oxygen species (ROS) levels: declined
[7]; melatonin, cassava
  antioxidative enzymes that reduce hydrogen peroxide accumulation: activated
[8]; melatonin 0.1 mM, via increased enzyme activity
  lipid peroxidation: inhibited lipid peroxidation
[8]; melatonin 0.1 mM
  senescence: delayed senescence
  total phenolics: maintained total phenolics
[8]; melatonin, vs untreated
  antioxidant capacity: increased
  reactive oxygen species (ROS) levels: declined
[9]; melatonin 0.4 mM, litchi pericarp, up to 6 d
  increase in total phenolics: approximately 40%
[9]; melatonin 0.4 mM, litchi
  activity of several antioxidants: increased
  free radical development: reduced
[9]; melatonin, litchi
  key enzymes in the melatonin biosynthesis pathway: Upregulation
[10]
  PPO activity: significant decrease
[11]
  PAL activity: higher
[12]
  PAL activity: increased
[13]
  nonenzymatic antioxidants (phenolics, flavonoids, anthocyanins): enhances nonenzymatic antioxidants

— patent US20260314597A1, “A NOVEL APPROACH TO INTERFERE IN THE PHENYLPROPANOID BIOSYNTHETIC PATHWAY TO REDUCE PINK-RIB DISORDER IN FRESH LETTUCE” (University of Florida Research Foundation, Inc., priority 2022, published 2026)
